Entries after “also recorded” stand apart in the source; their conditions may differ. Where two headings read alike, the source gives them in different places.
Tests used:
[1] = tested on: vomiting and nausea in chemotherapy patients; conditions: cited from earlier work
[2] = Acute oral toxicity, single doses; format: in vivo; conditions: in vivo, single oral dose, read-out: LD50 (could not be determined; single oral doses up to this dose non lethal)
Method: (§1) LD50 could not be determined in either rhesus monkeys or dogs as single oral doses of up to 9000 mg/kg of either delta-8- or delta-9-THC in dogs or monkeys were non lethal.

rhesus monkeys = experiment: Acute oral toxicity, single doses; format: in vivo; conditions: single oral doses up to 9000 mg/kg
Method: as §1

dogs = experiment: Acute oral toxicity, single doses; format: in vivo; conditions: single oral doses up to 9000 mg/kg
Method: as §1

[3] = Acute oral toxicity, single doses, observed for 7 days; format: in vivo; conditions: rat, in vivo; Fischer rats, male, single oral dose, observed 7 days; read-out: LD50, males
Fischer rats = experiment: as above; format: in vivo; conditions: extremely high oral doses, delta-8- vs delta-9-THC
[4] = tested on: vomiting due to antineoplastic therapy; experiment: Preliminary trials ending the antiemetic therapy after first or second dose; format: in vivo, human; conditions: therapy ended after first or second dose, i.e. after 6 or 12 hrs
Method: (§2) A study on vomiting due to antineoplastic therapy was carried out with 8 patients. Chemotherapy protocols of the types indicated in the Table almost invariable cause intense vomiting, which starts about 2 hrs after the initiation of chemotherapy and gradually ends over a 24 hr period. In preliminary trials we tried to end the antiemetic therapy after the first or second dose of the cannabinoid, i.e. after 6 or 12 hrs. […] In one case (patient) delta-8-THC therapy initially was refused. The patient experienced debilitating vomiting for 24 hrs after the antineoplastic treatment. During the second treatment cycle (which took place after 8 days), at the patient's family request, delta-8-THC treatment was initiated.

[5] = tested on: vomiting and nausea in cancer therapy; experiment: Comparison of delta-8-THC with delta-9-THC for antiemetic use (effectiveness, side effects); format: in vivo, human; conditions: compared with delta-9-THC
[6] = tested on: vomiting due to antineoplastic therapy in children with various blood cancers; experiment: Antiemetic trial of delta-8-THC in 8 children receiving antineoplastic therapy (prevention of vomiting, side effects); format: in vivo, human (children)
Method: In a trial, with 8 children of 3 to 13 years age, with various blood cancers, treated with a variety of antineoplastic drugs, 18 mg/m^2, in edible oil, p.o. of delta-8-THC was given two hours before the antineoplastic drug, and repeated every 6 hours of 24 hours. […] So far these children have received Δ^8 -THC nearly 500 times (see Table).
Eight children with various blood cancers were administered delta-8-THC at a dose of 18 mg/m^2 p.o. two hours before the start of the anticancer treatment. The drug was dissolved in corn or olive oil (6 mg/ml). The same dose was repeated every 6 hrs for 24 hrs. Whenever additional cycles of antineoplastic therapy were required, delta-8-THC was administered following the same time procedure described above. Children received delta-8-THC only during days when emetogenic drugs were administered.
Established anticancer drug protocols were followed with all patients.
as §2
Our antiemetic protocol for cancer patients, to which we strictly adhere, consists of one dose of delta-8-THC (18 mg/m^2) 2 hours before chemotherapy, followed by the same dose every 6 hours for a total of 4 doses per day.

[7] = Stability towards chemicals and oxidation, compared with delta-9-THC; format: physicochemical; conditions: compared with delta-9 isomer
[8] = tested on: vomiting due to antineoplastic therapy; experiment: Previous antiemetic treatment of patient 1 with Metoclopromide; format: in vivo, human; conditions: patient 1, 0.3 mg/kg p.o. or i.v.
[9] = chemotherapy of cancer, treated patients

In the case of `CCCCCc1cc(O)c2c(c1)OC(C)(C)[C@@H]1CCC(C)=C[C@@H]21` [delta-9-THC, delta-9-tetrahydro-cannabinol, reference compound], the “Effect in the remaining patients” value ([1]; chemotherapy of cancer, the rest of treated patients) is listed as “little or no effect”, the “Patients in whom vomiting and nausea is prevented” value [1, 9] is listed as 20 to 30 per cent and the “Patients in whom vomiting and nausea symptoms are reduced” value [1, 9] is listed as 40 to 50 per cent. For the same molecule, the Pronounced side effects ([1]; treated patients, pronounced with elderly patients) was “drowsiness, dizziness and in some cases--anxiety”, the “Side effects in younger patients” value ([1]; younger patients) was “mainly mood changes” and the LD50 ([2]; dog, dogs) was greater than 9000 mg/kg. For the same molecule, the LD50 ([2]; rhesus monkey, rhesus monkeys) was greater than 9000 mg/kg, the Histopathological alterations (rhesus monkeys) was “did not occur” and the Histopathological alterations (dogs) was “did not occur”. The LD50 at 168 h [3] was 1910 mg/kg and the Histopathological changes (Fischer rats) was “essentially the same”.
For `CCCCCc1cc(O)c2c(c1)OC(C)(C)[C@@H]1CC=C(C)C[C@@H]21` [delta-8-THC], the “Vomiting after ending antiemetic therapy early” value [4] was “Vomiting started in most cases”, the “Effectiveness for the intended (antiemetic) use” value [5] was “at least as effective” and the Side-effects ([5]; especially in pediatric medicine) was “considerably reduced side-effects”. The Prevention of vomiting ([6]; 8 children, 18 mg/m^2 p.o. in edible oil 2 h before antineoplastic drug, repeated every 6 h for 24 h) was “completely prevented; also recorded: no emesis was noted; also recorded: prevention of vomiting was complete”, the “Effect of antiemetic treatments: side effects per patient” value ([6]; Table, individual child, 18 mg/m^2) was “no side effects; also recorded: slight irritability; also recorded: euphoria” and the “Anxiety or hallucinogenic effects” value ([6]; children, 18 mg/m^2 p.o.) was “No anxiety or hallucinogenic effects were noted”. The “Side effects (overall)” value ([6]; children, 18 mg/m^2 p.o., every 6 h for 24 h) was “negligible side effects; also recorded: minor: some irritability as slight euphoria; also recorded: without the occurrence of major side effects”, the “Vomiting in patient, second treatment cycle” value ([6]; delta-8-THC initiated at second cycle after refusal in first cycle, 18 mg/m^2 p.o.) was “No vomiting occurred” and the Proneness to oxidation [7] was “less prone to oxidation”. The “Stability towards various chemicals” value [7] was “considerably more stable”, the LD50 ([2]; dog, dogs) was greater than 9000 mg/kg and the LD50 ([2]; rhesus monkey, rhesus monkeys) was greater than 9000 mg/kg. For the same molecule, the Histopathological alterations (rhesus monkeys) was “did not occur”, the Histopathological alterations (dogs) was “did not occur” and the LD50 at 168 h [3] was 1980 mg/kg. For the same molecule, the Histopathological changes (Fischer rats) was “essentially the same”.
For `CCN(CC)CCNC(=O)c1cc(Cl)c(N)cc1OC` [Metoclopromide], the Prevention of vomiting [8] was “failed to”.
